Assay results from PubChem BioAssay (NCI).
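A five-concentration, 48-hour dose response in 96-well plates underlies each endpoint, interpolated linearly between surrounding concentrations. The concentration for full growth arrest is given as TGI.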

Columns and labels:
Experiment in all cases: growth of human tumour cells (NCI), 48 h
NCI-H23 lung = tested on: NCI-H23 lung
RXF 393 renal = tested on: RXF 393 renal
SF-295 CNS = tested on: SF-295 CNS
SN12C renal = tested on: SN12C renal
UO-31 renal = tested on: UO-31 renal
MALME-3M melanoma = tested on: MALME-3M melanoma
NCI-H522 lung = tested on: NCI-H522 lung
COLO 205 colon = tested on: COLO 205 colon
SNB-75 CNS = tested on: SNB-75 CNS
HCT-15 colon = tested on: HCT-15 colon

Row | SMILES | TGI (NCI-H23 lung) [µM] | TGI (RXF 393 renal) [µM] | TGI (SF-295 CNS) [µM] | TGI (SN12C renal) [µM] | TGI (UO-31 renal) [µM] | TGI (MALME-3M melanoma) [µM] | TGI (NCI-H522 lung) [µM] | TGI (COLO 205 colon) [µM] | TGI (SNB-75 CNS) [µM] | TGI (HCT-15 colon) [µM]
1 | Cc1ccc(-c2nnc3s/c(=C\c4ccc(N(C)C)cc4)c(=O)n23)cc1 | > 100 | > 100 | > 100 | > 100 | > 100 | > 100 | > 100 | > 100 | > 100 | 
2 | COc1ccccc1NC(=O)CC(=O)N1N=C(c2ccccc2)C(N=Nc2ccc(Cl)cc2)C1=O (centres undefined) | > 100 |  | 70.3 | > 100 | 52.4 |  | > 100 | > 100 | 55 | > 100
3 | O=C(O)CCN(CCCN(CCC(=O)O)CCC(=O)O)CCC(=O)O | > 100 |  | > 100 | > 100 |  | > 100 | > 100 | > 100 | > 100 | > 100
4 | CC(C)C(Sc1nc(-c2ccccc2)c(-c2ccccc2)[nH]1)c1n[nH]c(=S)n1-c1ccccc1 (centres undefined) | 77.9 |  | 57.3 | > 100 | 57.2 | 50.9 | 43.6 | 62.1 | > 100 | > 100
5 | O=C(O)c1ccc([C@@H]2C(=O)N(O)[C@@H]3C=CC[C@@H]32)cc1 | > 100 | > 100 | > 100 | > 100 | > 100 | > 100 | > 100 | > 100 | > 100 | > 100
6 | CC1=C(C(=O)CC(=O)C(=O)Nc2ccc(C)c(C)c2)Sc2ccccc2N1 | > 100 | > 100 | > 100 | > 100 | > 100 | > 100 | > 100 | > 100 | > 100 | > 100
7 | NC(N)=NS(=O)(=O)c1ccc(NC(=O)c2cccc3c(N)c4ccccc4nc23)cc1 | > 100 | > 100 | > 100 | > 100 | > 100 | > 100 | > 100 | > 100 | > 100 | > 100
8 | COc1cc(CNc2cnc3ccc(N)cc3n2)cc(OC)c1OC | > 100 | > 100 | > 100 | > 100 | > 100 | > 100 | > 100 | > 100 | > 100 | > 100
9 | O=C(Cc1nc2ccc([N+](=O)[O-])cc2[nH]c1=O)C(=O)Nc1ccccc1[N+](=O)[O-] | > 100 | > 100 | > 100 |  | > 100 | > 100 | > 100 | > 100 | > 100 | > 100
10 | Cc1nc2c3c(ccc2[nH]c1=O)C(=O)c1ccccc1C3=O | > 100 | > 100 | > 100 | > 100 | > 100 | > 100 | > 100 | > 100 | 87 | > 100
11 | COc1ccc2c(c1)[n+]([O-])c(/C(C)=N/NC(=O)c1ccccc1O)c(C)[n+]2[O-] | > 100 | > 100 | > 100 | > 100 | > 100 | > 100 | > 100 |  |  | > 100
12 | COC(=O)C(=O)C(/C(=N/N)C(=O)Nc1ccccc1C(N)=O)c1nc2ccc([N+](=O)[O-])cc2[nH]c1=O (centres undefined) | > 100 |  | > 100 | > 100 | > 100 | > 100 | > 100 | > 100 |  | > 100
13 | CC(C)OP(=O)(OC(C)C)C(=NCCN=C(NNc1ccccc1[N+](=O)[O-])P(=O)(OC(C)C)OC(C)C)NNc1ccccc1[N+](=O)[O-] | > 100 |  |  | > 100 | 71.5 | 54.5 | > 100 | 54.9 | > 100 | > 100
14 | CCN(CC)Cc1cc(Nc2ccnc3ccc4nn(C)nc4c23)ccc1O | 29.9 | 21.6 | 29.1 | 86 | 54 | 31.3 | 21.6 | 19.1 | 26.1 | 43.8
15 | CN(C)C(=NC#N)N(Cc1ccccc1)Cc1ccccc1 | > 100 | > 100 | > 100 | > 100 | > 100 | > 100 | 81.5 | > 100 | > 100 | 30.1
16 | C/C(=N/O)c1sc(-c2nc(C)c(/C(C)=N\O)s2)nc1C | > 100 | > 100 | > 100 | > 100 | > 100 | > 100 |  | > 100 | > 100 | > 100
17 | NC(CCCCNCc1ccccc1)C(=O)O (centres undefined) | > 100 |  | > 100 | > 100 | > 100 | > 100 | > 100 | > 100 | > 100 | > 100
18 | O=C(CC1(O)C(=O)Nc2c(Cl)cc(Cl)cc21)c1ccc(F)cc1 (centres undefined) | 70.9 | 88.3 | > 100 | > 100 | > 100 | > 100 |  | 43 | 63.8 | > 100
